# Reference: US8455492B2, “Methods for treating retinal diseases” (Allergan, Inc., priority 1995, dated 2013)
# Where two headings read alike, the source gives them in different places.
# Assays:
# rat optic nerve = conditions: FIG. 3, optic nerve crush in rats
# [1] = system: rat hippocampal neuronal cultures; assay: Glutamate induced excitotoxic effects on nerve cells (percentage of dead cells, trypan blue); assay type: cell-based; conditions: FIG. 1; day 8; 1 mM glutamate; AGN-191103 0.1 nM, MK-801 10 nM
# Protocol: Low-density rat hippocampal neuronal cultures were prepared by the procedure of Goslin and Banker. […] Coverslips (13 mm) were placed in staining racks, rinsed in distilled water (four rinses, 1 min. each) to remove dust and transferred to concentrated HNO3 for 36 hours. Coverslips were rinsed in distilled water (four changes over 3 hours) and sterilized with dry heat (overnight at 225° C.). The coverslips were transferred to 24-well dishes, one coverslip per well. To support the coverslips above the glia during coculturing, paraffin dots were placed on dishes, and UV irradiation (30 min.) was applied before the coverslips were introduced. One mg/mL of poly-L-lysine hydrobromide (PLL) (Sigma) (MW 30,000-70,000) was dissolved in borate buffer (0.1 M, pH 8.5), filtered, sterilized and used to cover each coverslip overnight. The PLL was removed, coverslips were rinsed in distilled water (two washes, 2 hrs. each), plating medium [Eagle's MEM with Earle's salts containing extra glucose (600 mg/L) and 10% horse serum] was added and the dishes were stored in an incubator. […]
# After 24 hrs. of incubation, cells were stained with trypan blue. Live and dead neurons were counted from randomly selected culture fields (5 fields from each coverslip). Percentage of dead cells was calculated.
# retina = conditions: FIG. 5; topical 10 μl one hour before ischemia insult; ERG one week after insult
# Protocol: FIG. 5 is a bar graph showing the results of a study to determine the topical efficacy of brimonidine in neuroprotection. The rat acute retinal ischemia model was used to provide the noxious action. Brimonidine was applied topically one hour before ischemia insult, 10 μl to one eye, 10 μl saline to the other eye. The ERG (electroretinogram) was measured one week after the insult.
# intraocular pressure [2] = conditions: rabbits; topical to the cornea; cited from earlier work
# intraocular pressure [3] = conditions: cats; topical to the cornea; cited from earlier work
# intraocular pressure [4] = conditions: monkeys; topical to the cornea; cited from earlier work
smiles,measurement,setting,value
Clc1cccc(Cl)c1N=C1NCCN1 [clonidine],maximal CAP response relative to AGN 191103,rat optic nerve,about half the maximal CAP response of AGN 191013
same,neuroprotective activity (maximal CAP amplitude) versus vehicle,rat optic nerve; four concentrations,some neuroprotective activity over vehicle alone
"C[C@]12N[C@H](Cc3ccccc31)c1ccccc12 [MK-801, dizocilpine]",protection of cells from glutamate induced neurotoxicity (percentage of cells killed),[1],comparable effects in protecting cells from glutamate induced neurotoxicity
Brc1c(NC2=NCCN2)ccc2nccnc12 [brimonidine],topical neuroprotection (percent of ERG signal recovery),retina,provides topical neuroprotection in a dose dependent manner
same,reduction of intraocular pressure,intraocular pressure [2],effective in reducing intraocular pressure
same,reduction of intraocular pressure,intraocular pressure [3],effective in reducing intraocular pressure
same,reduction of intraocular pressure,intraocular pressure [4],effective in reducing intraocular pressure
